According to ChEMBL document CHEMBL4680119, “Battle tactics against MMP-9; discovery of novel non-hydroxamate MMP-9 inhibitors endowed with PI3K/AKT signaling attenuation and caspase 3/7 activation via Ugi bis-amide synthesis” (Eur J Med Chem, 2020):
Active and inactive are the calls of the source. The calls are words filed in the database; no cut-off is given here.

Legend:
MCF7 [1] = assay: Induction of apoptosis in human MCF-7 cells assessed as total apoptosis by annexin V/propidium iodide staining based by flow cytometry (reference value: 0.48+/- 0.01%); assay type: functional
MCF7 [2] = assay: Induction of apoptosis in human MCF-7 cells assessed as early apoptosis by annexinV/propidium iodide staining based by flow cytometry (reference value: 0.47+/- 0.01%); assay type: functional
[3] = Anticancer activity against […] cells assessed as reduction in cell viability by MTT assay; assay type: functional, cell-based; settings: Mus musculus
[4] = Induction of apoptosis in […] cells assessed as total apoptosis by annexinV/propidium iodide staining based by flow cytometry (reference value: 0.495+/- 0.01%); assay type: functional, Mus musculus
[5] = Induction of apoptosis in […] cells assessed as late apoptosis by annexinV/propidium iodide staining based by flow cytometry (reference value: 0.015+/- 0.01%); assay type: functional, Mus musculus
NFS-60 [6] = assay: Induction of cell morphological changes in […] cells assessed as loss in cell shape by microscopic analysis; assay type: functional, cell-based; settings: Mus musculus
HepG2 [7] = assay: Induction of cell morphological changes in human HepG2 cells assessed as loss in cell shape by microscopic analysis; assay type: functional, cell-based
MCF7 [8] = assay: Induction of apoptosis in human MCF7 cells assessed as increase in caspase-3/7 activation by flow cytometric analysis; assay type: functional
HepG2 [9] = assay: Induction of apoptosis in human HepG2 cells assessed as early apoptosis by annexinV/propidium iodide staining based by flow cytometry (reference value: 0.78+/- 0.09%); assay type: functional
HepG2 [10] = assay: Induction of apoptosis in human HepG2 cells assessed as increase in caspase-3/7 activation by flow cytometric analysis; assay type: functional
WI-38 = assay: Cytotoxicity against human WI-38 cells assessed as reduction in cell viability by MTT assay; assay type: cell-based; settings: for EC100: human, wi-38; for IC50: Homo sapiens, WI-38
HepG2 [11] = assay: Induction of apoptosis in human HepG2 cells assessed as total apoptosis by annexin/propidium iodide staining based by flow cytometry (reference value: 0.169+/- 0.02%); assay type: functional
[12] = Induction of apoptosis in […] cells assessed as early apoptosis by annexinV/propidium iodide staining based by flow cytometry (reference value: 0.02+/- 0.01%); assay type: functional, Mus musculus
HepG2 [13] = assay: Induction of apoptosis in human HepG2 cells assessed as late apoptosis by annexinV/propidium iodide staining based by flow cytometry (reference value: 0.1+/- 0.001%); assay type: functional
[14] = Induction of apoptosis in […] cells assessed as increase in caspase-3/7 activation by flow cytometric analysis; assay type: functional, Mus musculus
MCF7 [15] = assay: Induction of apoptosis in human MCF-7 cells assessed as late apoptosis by annexinV/propidium iodide staining based by flow cytometry (reference value: 0.01+/- 0.001%); assay type: functional
MCF7 [16] = assay: Induction of cell morphological changes in human MCF7 cells assessed as loss in cell shape by microscopic analysis; assay type: functional, cell-based
NFS-60 [17] = assay: Induction of apoptosis in […] cells assessed as cell shrinkage by microscopic analysis; assay type: functional, cell-based
Interstitial collagenase = target: T1, Interstitial collagenase (Homo sapiens, UniProt P03956); assay: Inhibition of MMP-1 (unknown origin) by colorimetric assay
T1 sequence (P03956 whole entry): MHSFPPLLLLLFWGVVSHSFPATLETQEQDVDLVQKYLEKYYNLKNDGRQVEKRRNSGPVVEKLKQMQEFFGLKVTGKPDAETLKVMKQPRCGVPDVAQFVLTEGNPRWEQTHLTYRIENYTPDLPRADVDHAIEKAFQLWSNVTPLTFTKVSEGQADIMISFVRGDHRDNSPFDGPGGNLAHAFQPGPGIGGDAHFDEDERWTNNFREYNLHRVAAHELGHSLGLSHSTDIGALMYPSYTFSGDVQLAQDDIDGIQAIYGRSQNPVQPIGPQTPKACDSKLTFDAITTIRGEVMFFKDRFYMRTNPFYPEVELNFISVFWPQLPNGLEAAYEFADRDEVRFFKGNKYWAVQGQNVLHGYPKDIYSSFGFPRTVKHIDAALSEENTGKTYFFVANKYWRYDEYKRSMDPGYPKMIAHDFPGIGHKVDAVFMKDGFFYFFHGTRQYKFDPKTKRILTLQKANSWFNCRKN

HepG2 [18] = assay: Induction of apoptosis in human HepG2 cells assessed as cell shrinkage by microscopic analysis; assay type: functional, cell-based
HepG2 [19] = assay: Anticancer activity against human HepG2 cells assessed as reduction in cell viability by MTT assay; assay type: functional, cell-based
in vitro = settings: human, WI38 cells and HepG2 cells
Description: Selectivity index, ratio of IC50 for human WI38 cells to IC50 for human HepG2 cells

[20] = target: Matrix metalloproteinase-9 (Homo sapiens, UniProt P14780); assay: Inhibition of MMP-9 (unknown origin) by colorimetric assay
Chain of Matrix metalloproteinase-9 (P14780 whole entry): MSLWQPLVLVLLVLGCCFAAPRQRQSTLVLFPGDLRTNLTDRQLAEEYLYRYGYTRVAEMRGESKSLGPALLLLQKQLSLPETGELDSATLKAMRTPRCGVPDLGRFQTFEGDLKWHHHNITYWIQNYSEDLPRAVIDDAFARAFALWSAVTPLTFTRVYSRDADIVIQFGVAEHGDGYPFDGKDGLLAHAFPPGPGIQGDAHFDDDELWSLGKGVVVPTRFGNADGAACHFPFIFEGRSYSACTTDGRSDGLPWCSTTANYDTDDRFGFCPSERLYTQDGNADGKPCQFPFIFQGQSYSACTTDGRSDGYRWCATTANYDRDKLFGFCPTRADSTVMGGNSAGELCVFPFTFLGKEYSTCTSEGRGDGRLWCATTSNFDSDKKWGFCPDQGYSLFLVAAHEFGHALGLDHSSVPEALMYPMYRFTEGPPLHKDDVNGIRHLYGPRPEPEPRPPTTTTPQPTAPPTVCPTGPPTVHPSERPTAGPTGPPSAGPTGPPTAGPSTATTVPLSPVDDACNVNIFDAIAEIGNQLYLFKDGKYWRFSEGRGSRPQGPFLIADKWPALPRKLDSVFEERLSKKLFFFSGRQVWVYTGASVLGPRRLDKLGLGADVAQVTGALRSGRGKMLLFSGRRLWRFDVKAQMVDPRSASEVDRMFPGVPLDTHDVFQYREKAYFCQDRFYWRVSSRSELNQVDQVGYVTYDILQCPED

Collagenase 3 = Collagenase 3 (Homo sapiens, UniProt P45452); assay: Inhibition of MMP-13 (unknown origin) by colorimetric assay
MCF7 [21] = assay: cells; settings: Homo sapiens
Description: Anticancer activity against human MCF7 cells assessed as reduction in cell viability by MTT assay

[22] = target: 72 kDa type IV collagenase (Homo sapiens, UniProt P08253); assay: Inhibition of MMP-2 (unknown origin) by colorimetric assay
Chain of 72 kDa type IV collagenase (P08253 whole entry): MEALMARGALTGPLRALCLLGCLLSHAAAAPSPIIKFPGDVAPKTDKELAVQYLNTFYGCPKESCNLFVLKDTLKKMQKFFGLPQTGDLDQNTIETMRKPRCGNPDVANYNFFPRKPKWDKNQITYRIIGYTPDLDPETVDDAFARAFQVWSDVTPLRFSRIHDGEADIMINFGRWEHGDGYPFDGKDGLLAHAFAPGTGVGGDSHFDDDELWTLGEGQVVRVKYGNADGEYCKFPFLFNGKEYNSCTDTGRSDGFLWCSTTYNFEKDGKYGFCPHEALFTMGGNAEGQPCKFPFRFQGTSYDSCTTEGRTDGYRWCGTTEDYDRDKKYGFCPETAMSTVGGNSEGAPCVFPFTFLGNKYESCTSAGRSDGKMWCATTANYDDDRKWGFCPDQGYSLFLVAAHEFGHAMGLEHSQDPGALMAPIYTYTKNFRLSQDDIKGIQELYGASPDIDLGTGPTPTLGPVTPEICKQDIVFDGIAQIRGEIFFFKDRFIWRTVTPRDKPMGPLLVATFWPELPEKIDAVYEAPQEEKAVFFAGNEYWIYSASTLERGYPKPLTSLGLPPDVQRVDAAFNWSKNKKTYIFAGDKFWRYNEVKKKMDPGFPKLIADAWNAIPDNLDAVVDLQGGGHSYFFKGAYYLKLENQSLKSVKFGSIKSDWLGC

HepG2 [23] = assay: Inhibition of cell migration in human HepG2 cells incubated for 24 hrs by wound healing assay; assay type: functional
MCF7 [24] = assay: Induction of apoptosis in human MCF7 cells assessed as cell shrinkage by microscopic analysis; assay type: functional, cell-based

Row | SMILES | Activity (MCF7 [1]) [%] | Activity (MCF7 [2]) [%] | IC50 [3] [nM] | Activity [4] [%] | Activity [5] [%] | Activity (NFS-60 [6]) | Activity (HepG2 [7]) | Activity (MCF7 [8]) [%] | Activity (HepG2 [9]) [%] | Activity (HepG2 [10]) [%] | EC100 (WI-38) [nM] | Activity (HepG2 [11]) [%] | Activity [12] [%] | Activity (HepG2 [13]) [%] | Activity [14] [%] | Activity (MCF7 [15]) [%] | Activity (MCF7 [16]) | IC50 (Interstitial collagenase) [nM] | IC50 (HepG2 [19]) [nM] | selectivity ratio (in vitro) | further results
1 | COc1cccc2c1C(=O)c1c(O)c3c(c(O)c1C2=O)C[C@@](O)(C(=O)CO)C[C@@H]3O[C@H]1C[C@H](N)[C@H](O)[C@H](C)O1 [DOXORUBICIN] | 33.974 | 13.53 | 13 | 34.595 | 23.215 | Active | Active | 42.94 | 10.59 | 48.09 | 12.1 | 36.08 | 11.379 | 25.49 | 45.39 | 20.445 | Active |  |  |  | 
2 | O=C(Nc1ccc([N+](=O)[O-])cc1)C(c1ccc([N+](=O)[O-])cc1)N(C(=O)c1ccc(C(F)(F)F)cc1)c1ccccc1 (stereo unspecified) | 69.005 | 18.28 | 3.61 | 67.485 | 28.33 | Active | Active | 65.725 | 26.46 | 70.745 | 107.4 | 70.415 | 39.15 | 43.95 | 62.703 | 50.72 | Active | 41 | 2.2 | 170 | Activity (NFS-60 [17]): Active; Activity (HepG2 [18]): Active; IC50 [20]: 7.46 nM; IC50 (Collagenase 3): 113 nM; IC50 (MCF7 [21]): 3.6 nM; IC50 [22]: 139 nM; IC50 (WI-38): 374 nM; inhibition (INH) (HepG2 [23]): 93.77%; Activity (MCF7 [24]): Active
3 | O=C(Nc1ccc([N+](=O)[O-])cc1)C(c1ccccc1)N(C(=O)c1ccccc1I)c1ccccc1 (stereo unspecified) | 61.605 | 31.78 | 5.5 | 68.07 | 58.08 | Active | Active | 64.93 | 14.02 | 70.708 | 10.3 | 69.375 | 9.99 | 55.35 | 63.86 | 29.82 | Active | 104 | 3.1 | 11.3 | Activity (NFS-60 [17]): Active; Activity (HepG2 [18]): Active; IC50 [20]: 4.49 nM; IC50 (Collagenase 3): 280 nM; IC50 (MCF7 [21]): 6.9 nM; IC50 [22]: 266 nM; IC50 (WI-38): 35.1 nM; inhibition (INH) (HepG2 [23]): 59.35%; Activity (MCF7 [24]): Active
4 | O=C(Nc1ccc([N+](=O)[O-])cc1)C(c1ccccc1)N(Cc1ccccc1)C(=O)Cc1ccccc1 (stereo unspecified) | 49.19 | 27.39 | 5.8 | 55.35 | 39.08 | Active | Active | 51.928 | 19.08 | 59.13 | 93.5 | 55.19 | 16.26 | 36.1 | 53.86 | 21.79 | Active | 47 | 5.7 | 55.1 | IC50 [20]: 5.56 nM; IC50 (Collagenase 3): 295 nM; IC50 (MCF7 [21]): 6.6 nM; IC50 [22]: 221 nM; IC50 (WI-38): 314 nM; inhibition (INH) (HepG2 [23]): 71.25%
